Measurements reported in patent US9907859B2 (priority 2010, dated 2018).
Values after ≈ are worked out from the molar mass of the structure shown. Like-named read-outs stand apart in the source and are kept apart here.

Tests used:
physchem = conditions: aqueous with cosolvent or surfactant or cyclodextrin
[1] = both, cynomolgus monkey, in vivo, po

O=C(NN1C(=O)C2C3C=CC(C4CC34)C2C1=O)c1ccc(C(F)(F)F)cc1 (centres unmarked) [ST-246, 4-trifluoromethyl-N-(3,3a,4,4a,5,5a,6,6a-octahydro-1,3-dioxo-4,6-ethenocycloprop[f]isoindol-2(1H)-yl)-benzamide]
solubility (physchem; 4 °C, Solubility of ST-246, 4 ° C.): 6290 µg/mL (≈ 16.7 mM) | solubility (physchem; 25 °C, Solubility of ST-246, 25 ° C.): 7570 µg/mL (≈ 20.1 mM) | solubility (physchem; 40 °C, Solubility of ST-246, 40 ° C.): 11200 µg/mL (≈ 29.7 mM) | solubility (physchem; 60 °C, Solubility of ST-246, 60 ° C.): 16200 µg/mL (≈ 43.2 mM) | increase of exposure (AUCinf-obs) [1]: 84 fold | increase of maximum plasma concentration (Cmax) [1]: 37 fold | HL_Lambda_z ([1]; 10 mg/kg): 7.0 ± 0.9 h | HL_Lambda_z ([1]; 20 mg/kg): 7.2 ± 2.3 h
